In patent US20250339415A1, “DISULFIDE COMPOUNDS AS MEDICAMENTS” (CYTACOAT AB, priority 2021, published 2025):
Converted amounts (≈) assume the structure as drawn.

How the values were obtained:
Type in all cases: cell-based
[1] = system: Pseudomonas aeruginosa PA02; assay: Minimum inhibitory concentration (MIC), visible growth
Method: (§1) • 1. Using a sterile inoculating loop, transfer bacteria/Candida albicans from frozen stock culture and streak them on a fresh LA plate. • 2. Incubate the plate at 37° C. overnight (o/n) (18-24 h).
(§2) • 1. Prepare bacterial culture by adding 20 ml Mueller Hinton broth (*) to a 250-ml Erlenmeyer flask with sidearm. • 2. Using a sterile inoculating loop, pick approximately 10 colonies from the o/n bacterial culture and transfer bacteria to the flask. • 3. Incubate the E-flask with bacteria on a rotating shaker at 37° C. until OD590=0.40. This OD should equal an approximate bacterial count of 1×10^8 cfu/ml (**) • This is measured using a colorimeter (or spectrophotometer). Set reference and press R (=reference) first, then measure the bacterial culture by pressing T (=test). • 4. At OD590 0.40, serially dilute the bacterial suspension 1:10 000 in Mueller Hinton broth to obtain a bacterial target concentration of 1×10^4 cfu/ml. Determine the initial inoculation by serially diluting 0.1 ml in 0.9 ml blanks of sterile PBS and plating 0.1 ml aliquots to LA plates, preferably. • 5. Different concentrations of the tested compound are prepared in 0.6-0.8 ml of the final dilution of bacterial suspension and placed in 2-ml test tubes. • 6. Incubate test tubes in an orbital shaker incubator at 37° C. for 24 h.
(§3) • 7. Analyze visible growth, i.e. “Foggy” or “Clear”. MIC is being defined as the interval between the highest “Foggy” and the lowest “Clear” concentration of the compound.
(§4) Different concentrations of PDEA (Example 1) in Mueller Hinton medium were prepared. Bacteria were inoculated to a concentration of 20 000 CFU/ml and incubated at 37° C. for 24 hours. Minimum inhibitory concentrations (MICs) were determined by analyzing visible growth, i.e., readouts were “Clear” and “Foggy”.
(§5) Different concentrations of the quaternary ammonium PDEA (Example 2) in Mueller Hinton medium were prepared. Bacteria were inoculated to a concentration of 20 000 CFU/ml and incubated at 37° C. for 24 hours. Minimum inhibitory concentrations (MICs) were determined by analyzing visible growth, i.e., readouts were “Clear” and “Foggy”.
(§6) Different concentrations of this compound in Mueller Hinton medium were prepared. Bacteria were inoculated to a concentration of 20 000 CFU/ml and incubated at 37° C. for 24 hours. Minimum inhibitory concentrations (MICs) were determined by analyzing visible growth, i.e., readouts were “Clear” and “Foggy”.
(§7) Different concentrations of this compound were prepared in Mueller Hinton broth. Bacteria were inoculated to a concentration of 20 000 CFU/ml and incubated at 37° C. for 24 hours. Minimum inhibitory concentrations (MICs) were determined by analyzing visible growth, i.e., readouts were “Clear” and “Foggy”.

[2] = system: Klebsiella pneumoniae AO15200; assay: as above
Method: as §1, §2, §3, §4, §5, §6, §7

[3] = system: Enterococcus faecalis #28 (KI, Clinical Isolate); assay: as above
Method: as §1, §2, §3, §4, §5, §6, §7

[4] = system: Escherichia coli CFT073; assay: as above
Method: as §1, §2, §3, §4, §5, §6, §7

[5] = system: Staphylococcus aureus B5381; assay: as above
Method: as §1, §2, §3, §4, §5, §6, §7

[6] = system: Staphylococcus epidermidis Se19 (Clinical Isolate, Jan Ingemar Falk); assay: as above
Method: as §1, §2, §3, §4, §5, §6, §7

[7] = system: Enterococcus faecium #11 (KI, Clinical Isolate); assay: as above
Method: as §1, §2, §3, §4, §5, §6, §7

[8] = system: Candida albicans; assay: Minimum inhibitory concentration (MIC), visible growth, YPD broth
Method: as §1, §2, §3
(*) When testing Candida albicans, Yeast extract Peptone Dextrose (YPD) broth is being used.
(**) For Candida albicans it is equal to 1×10^7
Different concentrations of PDEA were also prepared in Yeast extract Peptone Dextrose (YPD) broth. Candida albicans were inoculated to a concentration of 20 000 CFU/ml and incubated at 37° C. for 24 hours. Readouts were “Clear” and “Foggy”.
Different concentrations of the quaternary ammonium PDEA (Example 2) were also prepared in Yeast extract Peptone Dextrose (YPD) broth. Candida albicans were inoculated to a concentration of 20 000 CFU/ml and incubated at 37° C. for 24 hours. Readouts were “Clear” and “Foggy”.
Different concentrations of the Para position-PDEA” is (S)-4-pyridylthio cysteamine were also prepared in Yeast extract Peptone Dextrose (YPD) broth. Candida albicans were inoculated to a concentration of 20 000 CFU/ml and incubated at 37° C. for 24 hours. Readouts were “Clear” and “Foggy”.
Different concentrations of “Carboxylic acid PDEA” is 3-(2-Pyridyldithio)propanoic acid (CAS: 68617-64-1) were also prepared in Yeast extract Peptone Dextrose (YPD) broth. Candida albicans were inoculated to a concentration of 20 000 CFU/ml and incubated at 37° C. for 24 hours. Readouts were “Clear” and “Foggy”.

In the case of `NCCSSc1ccncc1` [Example 3, (S)-4-pyridylthio cysteamine], the visible growth readout ([1]; 0.01 mM) is reported as “Foggy”, the visible growth readout ([1]; 0.05 mM) is reported as “Foggy” and the visible growth readout ([1]; 0.1 mM) is reported as “Foggy”. For the same molecule, the visible growth readout ([1]; 0.2 mM) was “Foggy”, the visible growth readout ([1]; 0.4 mM) was “Foggy” and the visible growth readout ([1]; 0.8 mM) was “Clear”. The visible growth readout ([1]; 1.6 mM) was “Clear”, the visible growth readout ([1]; 3.2 mM) was “Clear” and the MIC ([1]; Pseudomonas aeruginosa, PA02, Mueller Hinton, 20 000 CFU/ml, 37° C., 24 hours, read-out: MIC) was 400 to 800 µM (≈ 74.5 to 149 µg/mL). The visible growth readout ([2]; 0.01 mM) was “Foggy”, the visible growth readout ([2]; 0.05 mM) was “Foggy” and the visible growth readout ([2]; 0.1 mM) was “Foggy”. The visible growth readout ([2]; 0.2 mM) was “Foggy”, the visible growth readout ([2]; 0.4 mM) was “Clear” and the visible growth readout ([2]; 0.8 mM) was “Clear”. For the same molecule, the visible growth readout ([2]; 1.6 mM) was “Clear”, the visible growth readout ([2]; 3.2 mM) was “Clear” and the MIC ([2]; Klebsiella pneumoniae, AO15200, Mueller Hinton, 20 000 CFU/ml, 37° C., 24 hours, read-out: MIC) was 200 to 400 µM (≈ 37.3 to 74.5 µg/mL). For the same molecule, the visible growth readout ([3]; 0.01 mM) was “Foggy”, the visible growth readout ([3]; 0.05 mM) was “Foggy” and the visible growth readout ([3]; 0.1 mM) was “Foggy”. The visible growth readout ([3]; 0.2 mM) was “Foggy”, the visible growth readout ([3]; 0.4 mM) was “Clear” and the visible growth readout ([3]; 0.8 mM) was “Clear”. For the same molecule, the visible growth readout ([3]; 1.6 mM) was “Clear”, the visible growth readout ([3]; 3.2 mM) was “Clear” and the MIC ([3]; Enterococcus faecalis, Mueller Hinton, 20 000 CFU/ml, 37° C., 24 hours, read-out: MIC) was 200 to 400 µM (≈ 37.3 to 74.5 µg/mL). For the same molecule, the visible growth readout ([4]; 0.01 mM) was “Foggy”, the visible growth readout ([4]; 0.05 mM) was “Foggy” and the visible growth readout ([4]; 0.1 mM) was “Foggy”. For the same molecule, the visible growth readout ([4]; 0.2 mM) was “Foggy”, the visible growth readout ([4]; 0.4 mM) was “Clear” and the visible growth readout ([4]; 0.8 mM) was “Clear”. For the same molecule, the visible growth readout ([4]; 1.6 mM) was “Clear”, the visible growth readout ([4]; 3.2 mM) was “Clear” and the MIC ([4]; Escherichia coli, CFT073, Mueller Hinton, 20 000 CFU/ml, 37° C., 24 hours, read-out: MIC) was 200 to 400 µM (≈ 37.3 to 74.5 µg/mL). For the same molecule, the visible growth readout ([5]; 0.01 mM) was “Foggy”, the visible growth readout ([5]; 0.05 mM) was “Foggy” and the visible growth readout ([5]; 0.1 mM) was “Foggy”. The visible growth readout ([5]; 0.2 mM) was “Foggy”, the visible growth readout ([5]; 0.4 mM) was “Clear” and the visible growth readout ([5]; 0.8 mM) was “Clear”. For the same molecule, the visible growth readout ([5]; 1.6 mM) was “Clear”, the visible growth readout ([5]; 3.2 mM) was “Clear” and the MIC ([5]; Staphylococcus aureus, B5381, Mueller Hinton, 20 000 CFU/ml, 37° C., 24 hours, read-out: MIC) was 200 to 400 µM (≈ 37.3 to 74.5 µg/mL). For the same molecule, the visible growth readout ([6]; 0.01 mM) was “Foggy”, the visible growth readout ([6]; 0.05 mM) was “Foggy” and the visible growth readout ([6]; 0.1 mM) was “Foggy”. The visible growth readout ([6]; 0.2 mM) was “Clear”, the visible growth readout ([6]; 0.4 mM) was “Clear” and the visible growth readout ([6]; 0.8 mM) was “Clear”. The visible growth readout ([6]; 1.6 mM) was “Clear”, the visible growth readout ([6]; 3.2 mM) was “Clear” and the MIC ([6]; Staphylococcus epidermidis, Mueller Hinton, 20 000 CFU/ml, 37° C., 24 hours, read-out: MIC) was 100 to 200 µM (≈ 18.6 to 37.3 µg/mL). The visible growth readout ([7]; 0.01 mM) was “Foggy”, the visible growth readout ([7]; 0.05 mM) was “Foggy” and the visible growth readout ([7]; 0.1 mM) was “Foggy”. For the same molecule, the visible growth readout ([7]; 0.2 mM) was “Clear”, the visible growth readout ([7]; 0.4 mM) was “Clear” and the visible growth readout ([7]; 0.8 mM) was “Clear”. The visible growth readout ([7]; 1.6 mM) was “Clear”, the visible growth readout ([7]; 3.2 mM) was “Clear” and the MIC ([7]; Enterococcus faecium, Mueller Hinton, 20 000 CFU/ml, 37° C., 24 hours, read-out: MIC) was 100 to 200 µM (≈ 18.6 to 37.3 µg/mL). For the same molecule, the visible growth readout ([8]; 0.01 mM) was “Foggy”, the visible growth readout ([8]; 0.05 mM) was “Foggy” and the visible growth readout ([8]; 0.1 mM) was “Foggy”. For the same molecule, the visible growth readout ([8]; 0.2 mM) was “Foggy”, the visible growth readout ([8]; 0.4 mM) was “Foggy” and the visible growth readout ([8]; 0.8 mM) was “Foggy”. For the same molecule, the visible growth readout ([8]; 1.6 mM) was “Foggy”, the visible growth readout ([8]; 3.2 mM) was “Clear” and the MIC ([8]; Candida albicans, YPD broth, 20 000 CFU/ml, 37° C., 24 hours, read-out: MIC) was 1600 to 3200 µM (≈ 298 to 596 µg/mL).
